# Measurements as given in PubChem BioAssay (NCI).
# “And” between values parts separate entries of the source, which are not always exact repeats. Identical values can stand only once.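 Results reflect a 48-hour exposure of cells in 96-well plates to compound at five concentrations. GI50 marks 50% less growth. The concentration for full growth arrest is given as TGI.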
# Columns and labels:
# Assay in all cases: NCI tumour cell line growth inhibition, 48 h
# DLD-1 colon = test system: DLD-1 colon
# DMS 273 small cell lung = test system: DMS 273 small cell lung
# RXF-631 renal = test system: RXF-631 renal
# HOP-18 NSCLC = test system: HOP-18 NSCLC
# PC-3 prostate = test system: PC-3 prostate
# NCI/ADR-RES ovarian = test system: NCI/ADR-RES ovarian
# MDA-MB-231 breast = test system: MDA-MB-231 breast
# MDA-N = test system: MDA-N
# SN12K1 renal = test system: SN12K1 renal
# P388/ADR leukemia = test system: P388/ADR leukemia
SMILES,TGI (DLD-1 colon),TGI (DMS 273 small cell lung),TGI (RXF-631 renal),TGI (HOP-18 NSCLC),further results
O=C(c1ccc(Cl)cc1)c1ccc(OCCCCCCCCCCOc2ccc(C(=O)c3ccc(Cl)cc3)cc2)cc1,> 100 µM,> 100 µM,> 100 µM,–,–
O=C(Nc1cccs1)c1c(O)[nH]c(=S)[nH]c1=O,> 100 µM,–,> 100 µM,> 100 µM,–
O=C(O)COc1ccc(O)c2c1C(=O)CCCC2=O,> 100 µM,> 100 µM,> 100 µM,–,–
CCc1cccc(C(C)C)c1NC(=O)C(=O)CC(=O)c1c(C)n([O-])c2ccccc2[n+]1=O,> 100 µM,–,> 100 µM,–,–
CCO/C=C/C(C)C1(C(=O)OCC)CCCCC1=O (stereo unspecified),> 100 µM,47 µM,> 100 µM,> 100 µM,–
COc1cc(/C=C\c2ccccc2)cc(OC)c1OC,> 78.2 µM,11.5 µM,> 87.1 µM,> 100 µM,–
CN(C)c1ccc([O-])cc1.CN(C)c1ccc([O-])cc1.CN(C)c1ccc([O-])cc1.CN(C)c1ccc([O-])cc1.[Ti+4],> 100 µM,> 100 µM,> 100 µM,> 100 µM,GI50 (DLD-1 colon): 91 µM; GI50 (DMS 273 small cell lung): 34.3 µM; GI50 (RXF-631 renal): > 100 µM; GI50 (HOP-18 NSCLC): > 100 µM
CCCNCCCC(NC(C)=O)C(=O)NCc1ccccc1 (stereo unspecified),> 100 µM,> 100 µM,> 100 µM,–,–
CC(=O)N[C@@H]1C(O)CN2C(=O)C(=O)O[C@H](C(O)CO)[C@@H]12 (stereo partly specified),> 100 µM,> 100 µM,> 100 µM,> 100 µM,–
CCCCC1CC(c2cccc([N+](=O)[O-])c2)=NO1 (stereo unspecified),> 100 µM,> 100 µM,> 100 µM,> 100 µM,–
Clc1ccc(Cc2nc3ccccc3s2)c(Cl)c1,29 µM,33.6 µM,30.1 µM,31.4 µM,–
CC(C)C1(O)C(c2ccccc2)=C(c2ccccc2)C(c2ccccc2)=C1c1ccccc1,> 100 µM,37.1 µM,51.3 µM,52.7 µM,–
O=c1[nH]c(=O)n([C@@H]2C[C@H](CO)[C@H](O)C2)cc1/C=C/Br,> 100 µM,> 100 µM,> 100 µM,> 100 µM,–
COC(=O)C1C(O)CC(c2ccccn2)N(Cc2ccccc2)C1c1ccccn1 (stereo unspecified),> 100 µM,> 100 µM,> 100 µM,> 100 µM,–
Oc1cc(O)c(Oc2cccc(O)c2O)c(O)c1,–,> 100 µM,> 100 µM,> 100 µM,–
O=C(Nc1cccc([N+](=O)[O-])c1)C(=O)C(C(=O)c1ccccc1-c1ccccc1)C1OC(=O)c2ccccc21 (stereo unspecified),42.2 µM,–,61.5 µM,–,–
COC1=CC(=O)C2C(C1=O)[C@@H]1c3ccccc3C[C@H]21 (stereo partly specified),> 100 µM,> 100 µM,> 100 µM,–,–
OCCCOC(c1ccccc1)(c1ccccc1)c1ccccc1,> 100 µM,> 100 µM,> 100 µM,–,–
CC[C@@]1(O)C[C@H](OC2CC(N(C)C)C(OC3CC(O)C(OC4CCC(=O)C(C)O4)C(C)O3)C(C)O2)c2c(cc3c(c2O)C(=O)c2c(O)cccc2C3=O)[C@H]1C(=O)OC (stereo partly specified),1.15 µM and 1.17 µM,–,0.0664 µM,0.854 µM and 2.72 µM,TGI (PC-3 prostate): 0.132 µM and 0.062 µM; TGI (NCI/ADR-RES ovarian): 0.696 µM and 0.878 µM; GI50 (DLD-1 colon): 0.00912 µM and 0.00788 µM; TGI (MDA-MB-231 breast): 0.198 µM; TGI (MDA-N): 0.0485 µM and 0.131 µM; TGI (SN12K1 renal): 0.101 µM; TGI (P388/ADR leukemia): 0.659 µM
Cn1nc(-c2ccccc2)c(C(=O)/C=C/c2ccc(F)cc2)c(N2CCCCC2)c1=O,16.6 µM,28.8 µM,53.6 µM,20.6 µM,–
COC[C@@H](N=CN1CCc2cc(OC)c(OC)cc2[C@@H]1C)C(C)(C)C,> 100 µM,–,> 100 µM,> 100 µM,–
CC(=O)NNc1nc(C)c(C(=O)NNC(=O)C(=O)Nc2c(C)cccc2C)s1,> 100 µM,> 100 µM,> 100 µM,> 100 µM,–
